These compounds were tested against SIK2 (Homo sapiens (Human), UniProt Q9H0K1) (assay: SIK2 Enzymatic Assay Version 2 (High ATP)). Conditions: 3 mM ATP and 200 μM HDAC5tide final, ADP-Glo Max luminescence.
Assay type: biochemical
Procedure, shortened: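 Run at room temperature; SIK2 enzyme at 6 nM (2× final) preincubated with compound 30 min before reaction. ADP formation detected by ADP-Glo Max (2 h reagent, 1 h detection) with luminescence read-out.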

Sequence of SIK2 (Q9H0K1 whole entry, species assumed): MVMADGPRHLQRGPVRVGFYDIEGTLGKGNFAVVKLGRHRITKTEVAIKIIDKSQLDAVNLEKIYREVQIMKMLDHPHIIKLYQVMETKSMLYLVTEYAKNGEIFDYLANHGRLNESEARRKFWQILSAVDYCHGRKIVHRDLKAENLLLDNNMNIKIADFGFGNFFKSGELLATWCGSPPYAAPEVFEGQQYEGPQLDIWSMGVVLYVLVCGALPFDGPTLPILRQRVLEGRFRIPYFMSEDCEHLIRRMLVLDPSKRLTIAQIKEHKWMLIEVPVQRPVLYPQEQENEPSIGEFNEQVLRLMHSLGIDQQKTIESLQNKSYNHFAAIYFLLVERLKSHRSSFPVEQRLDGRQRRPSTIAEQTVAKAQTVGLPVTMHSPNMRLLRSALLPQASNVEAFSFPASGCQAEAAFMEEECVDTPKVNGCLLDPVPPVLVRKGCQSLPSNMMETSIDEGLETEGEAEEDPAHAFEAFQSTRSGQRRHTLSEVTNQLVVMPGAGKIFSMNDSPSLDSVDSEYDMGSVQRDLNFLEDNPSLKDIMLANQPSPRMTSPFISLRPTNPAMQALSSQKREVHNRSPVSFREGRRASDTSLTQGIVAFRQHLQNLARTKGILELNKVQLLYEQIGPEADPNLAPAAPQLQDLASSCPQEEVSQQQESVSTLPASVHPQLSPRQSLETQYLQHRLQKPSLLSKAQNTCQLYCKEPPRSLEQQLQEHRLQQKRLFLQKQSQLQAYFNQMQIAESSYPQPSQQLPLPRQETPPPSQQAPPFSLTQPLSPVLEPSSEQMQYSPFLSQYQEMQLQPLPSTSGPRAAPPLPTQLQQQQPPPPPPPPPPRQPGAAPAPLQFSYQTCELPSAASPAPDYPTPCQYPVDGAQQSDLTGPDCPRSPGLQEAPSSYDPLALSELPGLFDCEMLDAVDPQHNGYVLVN

IC50 [nM]	SMILES
32.2	Cc1cc(Nc2cc3cc(-c4c(OC[C@H]5CCN5)cnn4C)ccn3n2)nnc1C [Example 275, 5-[4-[[(2R)-azetidin-2-yl]methoxy]-2-methyl-pyrazol-3-yl]-N-(5,6-dimethylpyridazin-3-yl)pyrazolo[1,5-a]pyridin-2-amine]
10	CCN1CC[C@@H]1COc1cnn(C(F)F)c1-c1ccn2nc(Nc3ccc(C)nn3)cc2c1 [Example 480, 5-[2-(difluoromethyl)-4-[[(2R)-1-ethylazetidin-2-yl]methoxy]pyrazol-3-yl]-N-(6-methylpyridazin-3-yl)pyrazolo[1,5-a]pyridin-2-amine]
3.3	Cc1cc(Nc2cc3cc(-c4c(CO[C@H]5CN(C)C[C@H]5C)cnn4C)ccn3n2)nc(C)n1 (stereo in doubt) [Example 368, CIS—*R, *R—N-(2,6-dimethylpyrimidin-4-yl)-5-[4-[(1,4-dimethylpyrrolidin-3-yl)oxymethyl]-2-methyl-pyrazol-3-yl]pyrazolo[1,5-a]pyridin-2-amine]
6.2	CNC(=O)c1nc(C)cc(Nc2cc3cc(-c4c(OC[C@H]5CCN5C)cnn4C)ccn3n2)n1 [Example 109, N,4-dimethyl-6-[[5-[2-methyl-4-[[(2R)-1-methylazetidin-2-yl]methoxy]pyrazol-3-yl]pyrazolo[1,5-a]pyridin-2-yl]amino]pyrimidine-2-carboxamide]
360	COC1(COc2noc(C)c2-c2ccn3nc(NC(=O)C4CC4)cc3c2)CN(C)C1 [Example 29, N-[5-[3-[(3-methoxy-1-methyl-azetidin-3-yl)methoxy]-5-methyl-isoxazol-4-yl]pyrazolo[1,5-a]pyridin-2-yl]cyclopropanecarboxamide]
29.4	COC1CNC[C@@H]1Oc1noc(C)c1-c1ccn2nc(NC(=O)C3CC3)cc2c1 (mixture of isomers) [Example 200, (rac-cis)-N-[5-[3-(4-methoxypyrrolidin-3-yl)oxy-5-methyl-isoxazol-4-yl]pyrazolo[1,5-a]pyridin-2-yl]cyclopropanecarboxamide]
10.8	Cc1cc(Nc2cc3cc(-c4c(OC[C@H]5OCC[C@@H]5O)cnn4C)ccn3n2)nc(C)n1 [Example 300, (2R,3S)-2-[[5-[2-[(2,6-dimethylpyrimidin-4-yl)amino]pyrazolo[1,5-a]pyridin-5-yl]-1-methyl-pyrazol-4-yl]oxymethyl]tetrahydrofuran-3-ol]
55.4	CN1CC[C@H](Oc2cnn(C)c2-c2ccn3nc(Nc4cc(C(F)(F)F)ccn4)cc3c2)C1 [Example 340, 5-[2-methyl-4-[(3S)-1-methylpyrrolidin-3-yl]oxy-pyrazol-3-yl]-N-[4-(trifluoromethyl)-2-pyridyl]pyrazolo[1,5-a]pyridin-2-amine]
143	CN1CC[C@H](Oc2cnn(C(F)F)c2-c2ccn3nc(NC(=O)C4CC4)cc3c2)C1 [Example 470, N-[5-[2-(difluoromethyl)-4-[(3S)-1-methylpyrrolidin-3-yl]oxy-pyrazol-3-yl]pyrazolo[1,5-a]pyridin-2-yl]cyclopropanecarboxamide]
2.8	Cc1cc(Nc2cc3cc(-c4c(OC[C@@H]5CCN5C)cnn4C)ccn3n2)nc(C2CC2)n1 [Example 134, N-(2-cyclopropyl-6-methyl-pyrimidin-4-yl)-5-[2-methyl-4-[[(2S)-1-methylazetidin-2-yl]methoxy]pyrazol-3-yl]pyrazolo[1,5-a]pyridin-2-amine]
128	Cn1ncc(OC2CNC2)c1-c1ccn2nc(NC(=O)C3CC3)cc2c1 [Example 397, N-[5-[4-(azetidin-3-yloxy)-2-methyl-pyrazol-3-yl]pyrazolo[1,5-a]pyridin-2-yl]cyclopropanecarboxamide]
5.5	CO[C@]1(COc2cnn(C(F)F)c2-c2ccn3nc(Nc4cc(C)nc(C)n4)cc3c2)CCNC1 (single isomer, unassigned) [Example 261, (*R)-5-(1-(difluoromethyl)-4-((3-methoxypyrrolidin-3-yl)methoxy)-1H-pyrazol-5-yl)-N-(2,6-dimethylpyrimidin-4-yl)pyrazolo[1,5-a]pyridin-2-amine]
8.3	Cn1ncc(O[C@@H]2CNC[C@@H]2F)c1-c1ccn2nc(NC(=O)C3CC3)cc2c1 [Example 242, N-[5-[4-[(3R,4S)-4-fluoropyrrolidin-3-yl]oxy-2-methyl-pyrazol-3-yl]pyrazolo[1,5-a]pyridin-2-yl]cyclopropanecarboxamide]
33.2	CO[C@@H]1CNC[C@@H]1Oc1cnn(C)c1-c1ccn2nc(NC(=O)C3CC3)cc2c1 (stereo in doubt) [Example 232, (rac-cis)-N-[5-[4-(4-methoxypyrrolidin-3-yl)oxy-2-methyl-pyrazol-3-yl]pyrazolo[1,5-a]pyridin-2-yl]cyclopropanecarboxamide]
50.3	Cc1onc(OC2CCNCC2)c1-c1ccn2nc(NC(=O)C3CC3)cc2c1 [Example 316, N-[5-[5-methyl-3-(4-piperidyloxy)isoxazol-4-yl]pyrazolo[1,5-a]pyridin-2-yl]cyclopropanecarboxamide]
56	CN1CC[C@H](Oc2cnn(C)c2-c2ccn3nc(Nc4cc5ccccn5n4)cc3c2)C1 [Example 344, 5-[2-methyl-4-[(3S)-1-methylpyrrolidin-3-yl]oxy-pyrazol-3-yl]-N-pyrazolo[1,5-a]pyridin-2-yl-pyrazolo[1,5-a]pyridin-2-amine]
22.7	CN1CCC[C@@H]1COc1cnn(C)c1-c1ccn2nc(NC(=O)C3CC3)cc2c1 [Example 239, N-[5-[2-methyl-4-[[(2R)-1-methylpyrrolidin-2-yl]methoxy]pyrazol-3-yl]pyrazolo[1,5-a]pyridin-2-yl]cyclopropanecarboxamide]
< 0.847	CN1CC[C@@H]1COc1cnn(C)c1-c1ccn2nc(Nc3ccnc(NC4CC4)n3)cc2c1 [Example 128, N2-cyclopropyl-N4-[5-[2-methyl-4-[[(2R)-1-methylazetidin-2-yl]methoxy]pyrazol-3-yl]pyrazolo[1,5-a]pyridin-2-yl]pyrimidine-2,4-diamine]
73	Cc1ccc(Nc2cc3cc(-c4c(OC[C@H]5CCN5)cnn4C)ccn3n2)nn1 [Example 392, 5-[4-[[(2R)-azetidin-2-yl]methoxy]-2-methyl-pyrazol-3-yl]-N-(6-methylpyridazin-3-yl)pyrazolo[1,5-a]pyridin-2-amine]
2.2	CCN1CC[C@@H]1COc1cnn(C)c1-c1ccn2nc(Nc3cnc(OC(F)F)cn3)cc2c1 [Example 181, N-[5-(difluoromethoxy)pyrazin-2-yl]-5-[4-[[(2R)-1-ethylazetidin-2-yl]methoxy]-2-methyl-pyrazol-3-yl]pyrazolo[1,5-a]pyridin-2-amine]
43.5	Cc1cc(Nc2cc3cc(-c4c(O[C@H]5CCN(C)C5)cnn4C)ccn3n2)nnc1C [Example 272, N-(5,6-dimethylpyridazin-3-yl)-5-[2-methyl-4-[(3S)-1-methylpyrrolidin-3-yl]oxy-pyrazol-3-yl]pyrazolo[1,5-a]pyridin-2-amine]
995	Cc1onc(OC[C@H]2COCCN2)c1-c1ccn2nc(NC(=O)C3CC3)cc2c1 [Example 496, N-[5-[5-methyl-3-[[(3R)-morpholin-3-yl]methoxy]isoxazol-4-yl]pyrazolo[1,5-a]pyridin-2-yl]cyclopropanecarboxamide]
96.9	CO[C@@H]1CNC[C@H]1COc1cnn(C)c1-c1ccn2nc(NC(=O)C3CC3)cc2c1 [Example 422, N-[5-[4-[[(3S,4S)-4-methoxypyrrolidin-3-yl]methoxy]-2-methyl-pyrazol-3-yl]pyrazolo[1,5-a]pyridin-2-yl]cyclopropanecarboxamide]
1.8	Cc1cnc(Nc2cc3cc(-c4c(OC[C@H]5CCN5CCF)cnn4C)ccn3n2)cn1 [Example 279, 5-[4-[[(2R)-1-(2-fluoroethyl)azetidin-2-yl]methoxy]-2-methyl-pyrazol-3-yl]-N-(5-methylpyrazin-2-yl)pyrazolo[1,5-a]pyridin-2-amine]
219	CCN1CC2(CC2)[C@@H]1COc1cnn(C)c1-c1ccn2nc(NC(=O)C3CC3)cc2c1 (single isomer, unassigned) [Example 16, (*R)—N-(5-(4-((5-Ethyl-5-azaspiro[2.3]hexan-4-yl)methoxy)-1-methyl-1H-pyrazol-5-yl)pyrazolo[1,5-a]pyridin-2-yl)cyclopropanecarboxamide]
1	Cc1onc(OC[C@@H](N)c2ccccc2)c1-c1ccn2nc(NC(=O)C3CC3)cc2c1 [Example 31, N-[5-[3-[(2S)-2-amino-2-phenyl-ethoxy]-5-methyl-isoxazol-4-yl]pyrazolo[1,5-a]pyridin-2-yl]cyclopropanecarboxamide]
13.7	Cn1ncc(OC[C@H]2CCN2CC(C)(C)O)c1-c1ccn2nc(NC(=O)C3CC3)cc2c1 [Example 245, N-[5-[4-[[(2R)-1-(2-hydroxy-2-methyl-propyl)azetidin-2-yl]methoxy]-2-methyl-pyrazol-3-yl]pyrazolo[1,5-a]pyridin-2-yl]cyclopropanecarboxamide]
51.9	CN1CC[C@@H]1COc1cnn(C)c1-c1ccn2nc(NC(=O)[C@@H]3C[C@@H]3C#N)cc2c1 [Example 475, cis-2-cyano-N-[5-[2-methyl-4-[(1-methylazetidin-2-yl)methoxy]pyrazol-3-yl]pyrazolo[1,5-a]pyridin-2-yl]cyclopropanecarboxamide]
79.7	COC(C)(C)CN1CC[C@@H]1COc1cnn(C)c1-c1ccn2nc(NC(=O)C3CC3)cc2c1 [Example 435, N-[5-[4-[[(2R)-1-(2-methoxy-2-methyl-propyl)azetidin-2-yl]methoxy]-2-methyl-pyrazol-3-yl]pyrazolo[1,5-a]pyridin-2-yl]cyclopropanecarboxamide]

SMILES	IC50 [nM]
Cn1ncc(OC[C@@H](N)C(C)(C)O)c1-c1ccn2nc(NC(=O)C3CC3)cc2c1 [Example 426, N-[5-[4-[(2R)-2-amino-3-hydroxy-3-methyl-butoxy]-2-methyl-pyrazol-3-yl]pyrazolo[1,5-a]pyridin-2-yl]cyclopropanecarboxamide]	71.6

From patent US20240174662A1, “SMALL MOLECULE INHIBITORS OF SALT INDUCIBLE KINASES” (Janssen Biotech, Inc., priority 2021, published 2024)
